Where “and” joins values, the source holds several entries; their conditions need not be identical. Identical values can stand only once.
Experiments:
[1] = target: T1, MTOR (Homo sapiens, UniProt P42345); assay: KINOMEscan competition binding, MTOR; conditions: 10 µM compound
T1 construct: DNA label for qPCR read-out (T7 phage fusion or DNA tag); purchased Eurofins DiscoverX Corporation; host or cells: T7 phage in E. coli (BL21-derived) or HEK-293
Experimental: The KINOMEscan screening platform (Eurofins DiscoverX Corporation) was performed using active site-directed competition binding assay to quantitatively measure interactions between BK40143 and BK40197 and more than 450 human kinases and disease relevant mutant variants. […] Screening “hits” are identified by measuring the amount of kinase captured in test (BK40143 and BK40197) versus control samples by using a quantitative and ultra-sensitive qRT-PCR method that detects the associated DNA label. BK40143 and BK40197 were screened at 10 µM concentration, and results for primary screen binding interactions were reported as “% Ctrl” (POC), where lower numbers indicate stronger hits and calculated as follows: [test compound signal−positive control signal/negative control signal−positive control signal]×100
negative control = DMSO (100% Ctrl)
positive control = control compound (0% Ctrl)
Based on screening data from of profiled compounds, a proportional relationship between primary screening results and corresponding compound/target affinities can be described as binding constants (Kd values) for the indicated ranges of POC values with tighter binding (higher affinity) interactions associated with lower POC values and weaker binding (lower affinity) associated with higher POC values. Briefly, kinase-tagged T7 phage strains were grown in parallel in 24-well blocks in an E. coli host derived from the BL21 strain. E. coli were grown to log-phase and infected with T7 phage from a frozen stock (multiplicity of infection = 0.4) and incubated with shaking at 32°C until lysis (90–150 min). The lysates were centrifuged (6,000g) and filtered (0.2 μm) to remove cell debris. The remaining kinases were produced in HEK-293 cells and subsequently tagged with DNA for qRT-PCR detection. Streptavidin-coated magnetic beads were treated with biotinylated small molecule ligands for 30 min at RT to generate affinity resins for kinase assays. The liganded beads were blocked with excess biotin and washed with blocking buffer (1% BSA, 0.05% Tween 20, 1 mM DTT; SeaBlock [Pierce]) to remove unbound ligand and to reduce non-specific phage binding. Binding reactions were assembled by combining kinases, liganded affinity beads, and test compounds in 1x binding buffer (20% 0.17x PBS, 0.05% Tween 20, 6 mM DTT; SeaBlock). Test compounds were prepared as 100x stocks in 100% DMSO and directly diluted into the assay. All reactions were performed in polypropylene 384-well plates in a final volume of 0.02 ml. The assay plates were incubated at RT with shaking for 1 h and the affinity beads were washed with wash buffer (1x PBS, 0.05% Tween 20). […] The kinase concentration in the eluates was measured by qRT-PCR.

[2] = test system: TgAPP mice; assay: Morris water maze, TgAPP mice; assay type: in vivo, mouse; design: Platform Distance: unit not given beside the values; Total Distance / Quad Time / Quad Distance / Trial 1 D4 / Trial 1 D4 AVG: unit not given here
Experimental: The Morris water maze was performed using a water bath 6 ft in diameter and filled with roughly 1 ft of water. The maze was divided into four quadrants, each with a visual stimulus positioned on the wall of the maze in the center of the quadrant arc. A clear platform was placed in one quadrant just beneath the surface of the water. Mice were then placed in a random non-platform quadrant and allowed to swim freely for 60 s (time was stopped and recorded if the mouse found the platform) before being placed on the platform for 15 s and returned to their cage. This was repeated for each of the three quadrants each day for 4 d. On the 5th d, the platform was removed and mice were placed in the quadrant opposite of where the platform had been and allowed to swim freely for 1 min before being returned to their cage. Time spent in the correct quadrant, latency to the platform, number of platform entries, and number of quadrant entries were recorded.

[3] = test system: beclin-1 in TgAPP mice; assay: Western blot for beclin-1 in brain; assay type: in vivo, mouse; conditions: BK40143 5 mg/kg, BK40197 45 mg/kg, vs DMSO
Experimental: Brain hemispheres from treated and untreated animals were lysed in 1x STEN buffer and protein concentrations were measured via BCA assay. Samples were normalized to 1 μg/μl and added to 2x Laemmli loading buffer + β-mercaptoethanol and boiled for 10 min to denature the protein. 15 μg of sample were then loaded in 4–12% Bis–Tris gels with MES buffer and electrophoresed, before transfer to a nitrocellulose membrane, where they were blocked with 5% dry milk in 1x TBST and incubated overnight with an anti-Beclin-1 primary antibody (cat. #3739S; Cell Signaling) or a phospho-c-KIT antibody (cat. #44-496G; Invitrogen). The next day, the membrane was washed and treated for 1 h with a goat anti-rabbit HRP-linked secondary followed by SuperSignal West Dura Extended Duration Substrate (cat. #37071; Thermo Fisher Scientific) and imaged on an Amersham Imager 600. This procedure was repeated the next day with an anti-mouse actin primary as a loading control.

[4] = MWM Probe, single animal values, listed as 143
[5] = MWM Probe, single animal values, listed as 143, in s (unit assumed)
[6] = MWM training, Day 1, single animal values, listed as 143
[7] = MWM training, Day 2, single animal values, listed as 143
[8] = MWM training, Day 3, single animal values, listed as 143
[9] = MWM training, Day 4, single animal values, listed as 143

Cc1cccc(-c2cc3nccc(Nc4ccccc4)c3s2)c1 [BK40143]
inhibition at 10 µM [1]: 0%
remaining binding at 10 µM ([1]; lower = stronger binding, read-out: MTOR %Ctrl @ 10000nM (POC)): 100%
Platform Distance [2, 4]: 0.467 and 0 and 0.449 and 0.195 and 0.184 and 0.331 and 0.254 and 0.89 and 0.328
Platform Entries [2, 4]: 2 and 0 and 1 and 3
Quad Distance [2, 4]: 5.043 and 5.446 and 3.201 and 3.934 and 3.492 and 4.145 and 2.65 and 6.181 and 3.964
Quad Distance/Total [2, 4]: 0.3982 and 0.4027 and 0.1894 and 0.2536 and 0.5166 and 0.3292 and 0.1787 and 0.6061 and 0.2552
Quad Entries [2, 4]: 10 and 8 and 9 and 3 and 6 and 13 and 7
Quad Time [2, 4]: 22.9 and 26.8 and 10.6 and 13.3 and 30.6 and 20.6 and 8.1 and 36.5 and 15.3
Total Distance [2, 4]: 12.663 and 13.525 and 16.899 and 15.514 and 6.759 and 12.592 and 14.83 and 10.786 and 10.198 and 15.531
Platform Latency ([2]; MWM Probe, single animal values, listed as 143, in s): 7 and 60 and 18.8 and 32.8 and 39.9 and 29.7 and 3.9 and 19 and 17.1
Platform Time [2, 5]: 1.2 and 0 and 1.4 and 0.6 and 0.8 and 5.3 and 1
Quad Latency [2, 5]: 3 and 9.6 and 9.7 and 11.8 and 11.9 and 1 and 2.6 and 4.4 and 3.3
Quad Time per Entry [2, 5]: 2.29 and 3.35 and 1.178 and 4.433 and 5.1 and 1.585 and 1.35 and 5.214 and 1.9125
Training Day 1 AVG ([2]; MWM training, Day 1, group average): 51.6747
Training Day 1, mean of the three trials per animal ([2]; MWM training, Day 1, per-animal mean, listed as 143): 53.4467 and 60 and 52.4667 and 29.4467 and 47.4833 and 58.2367 and 44.37 and 51.2967
Training Day 1, trial 1 [2, 6]: 40.34 and 60 and 56.02
Training Day 1, trial 2 [2, 6]: 60 and 37.4 and 16.7 and 22.45 and 54.71 and 56.59
Training Day 1, trial 4 [2, 6]: 60 and 11.64 and 20.5 and 33.89
Training Day 2 AVG ([2]; MWM training, Day 2, group average): 35.2243
Training Day 2, mean of the three trials per animal ([2]; MWM training, Day 2, per-animal mean, listed as 143): 48.7167 and 60 and 46.3833 and 23.8467 and 50.26 and 10.58 and 21.0467 and 41.7533 and 44.3033 and 5.353
Training Day 2, trial 1 [2, 7]: 60 and 20.69 and 7.13 and 14.22 and 47.78 and 22.96 and 5.56
Training Day 2, trial 2 [2, 7]: 60 and 19.15 and 23.07 and 4.53 and 36.28 and 34.46 and 5.16
Training Day 2, trial 4 [2, 7]: 26.15 and 60 and 27.78 and 30.78 and 20.08 and 12.64 and 43.02 and 49.95 and 5.34
Training Day 3 AVG ([2]; MWM training, Day 3, group average): 21.9237
Training Day 3, mean of the three trials per animal ([2]; MWM training, Day 3, per-animal mean, listed as 143): 16.49 and 19.77 and 22.4067 and 12.88 and 27.5233 and 6.497 and 51.49 and 20.0267 and 24.96 and 17.1933
Training Day 3, trial 1 [2, 8]: 5.91 and 7.09 and 10.32 and 15.21 and 29.09 and 11.01 and 60 and 23.94 and 21.27 and 31.09
Training Day 3, trial 2 [2, 8]: 2.72 and 9.21 and 18.46 and 13.59 and 19.08 and 3.47 and 34.47 and 8.82 and 17.41 and 5.46
Training Day 3, trial 4 [2, 8]: 40.84 and 43.01 and 38.44 and 9.84 and 34.4 and 5.01 and 60 and 27.32 and 36.2 and 15.03
Trial 1 D4 AVG ([2]; MWM training, Day 4, Trial 1, group average): 16.872
Training Day 4 AVG ([2]; MWM training, Day 4, group average): 25.5753
Training Day 4, mean of the three trials per animal ([2]; MWM training, Day 4, per-animal mean, listed as 143): 15.5667 and 10.07 and 25.41 and 53.8233 and 37.2967 and 27.5933 and 22.5667 and 22.4167 and 10.7767 and 30.2333
Training Day 4, trial 1 [2, 9]: 12.47 and 11.66 and 37.95 and 60 and 26.19 and 10.69 and 29.33 and 43.27 and 12.2 and 43.31
Training Day 4, trial 2 [2, 9]: 3.58 and 4.64 and 11.51 and 49.87 and 42.77 and 12.09 and 15.35 and 10.7 and 9.45 and 8.76
Training Day 4, trial 4 [2, 9]: 30.65 and 13.91 and 26.77 and 51.6 and 42.93 and 60 and 23.02 and 13.28 and 10.68 and 38.63
Morris water maze probe day (time in correct quadrant, quadrant entries, latency to platform) ([2]; TgAPP mice, 5 mg/kg IP, 6 wk, vs DMSO): showed improvement on measures of memory on the probe day of the water maze
Morris water maze training trials: time to locate the platform ([2]; TgAPP mice, BK40143 5 mg/kg, BK40197 45 mg/kg IP, 6 wk, vs DMSO): locate the platform significantly quicker on later training trials
beclin-1 levels in brain (Western blot) [3]: significant increases in levels of beclin-1

Source: paper PMC11249953, “c-KIT inhibitors reduce pathology and improve behavior in the Tg(SwDI) model of Alzheimer’s disease” (Life Science Alliance, 2024)
